Test results published in patent publication US20240391862A1, “(1,4,5-TRISUBSTITUTED-1H-PYRAZOL-3-YL)OXY-2-ALKOXY ALKYL ACIDS AND THEIR DERIVATIVES, THEIR SALTS AND THEIR USE AS HERBICIDAL AGENTS” (Bayer AKtiengesellschaft, priority 2021, published 2024).

What was measured:
LOLRI = experiment: Post-emergence herbicidal effect, greenhouse pot test; format: in vivo, Lolium rigidum
Excerpt: (§1) • ALOMY: Alopecurus myosuroides SETVI: Setaria viridis • AVEFA: Avena fatua POLCO: Fallopia convolvulus • AMARE: Amaranthus retroflexus ECHCG: Echinochloa crus-galli • LOLRJ: Lolium rigidum STEME: Stellaria media • VERPE: Veronica persica MATIN: Tripleurospermum inodorum • DIGSA: Digitaria sanguinalis ABUTH: Abutylon threophrasti • TRZAS: Triticum aestivum VIOTR: Viola tricolor • BRSNW: Brassica napus ZEAMX: Zea mays • PHBPU: Ipomoea purpurea GLXMA: Glycine max • ORYSA: Oryza sativa HORMU: Hordeum murinum
(§2) Seeds of monocotyledonous and dicotyledonous weeds and crop plants are placed in sandy loam in plastic or organic planting pots, covered with soil and cultivated in a greenhouse under controlled growth conditions. 2 to 3 weeks after sowing, the trial plants are treated at the one-leaf stage. The compounds of the invention, formulated in the form of wettable powders (WP) or as emulsion concentrates (EC), are then sprayed onto the green parts of the plants as aqueous suspension or emulsion with addition of 0.5% additive at a water application rate of 600 l/ha (converted). After the test plants have been kept in the greenhouse under optimum growth conditions for about 3 weeks, the activity of the preparations is rated visually in comparison to untreated controls. For example, 100% activity=the plants have died, 0% activity=like control plants.
(§3) Tables 20a to 38c below show the effects/crop compatibilities of selected compounds of the general formula (I) on various harmful plants at an application rate corresponding to 20 to 320 g/ha, which were obtained by the trial procedure specified above.

ALOMY = experiment: as above; format: in vivo, Alopecurus myosuroides
Method in brief: (§4)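 Weeds sown in sandy loam, greenhouse-grown 2–3 weeks, then sprayed at one-leaf stage with WP or EC formulations in water plus 0.5% additive at 600 l/ha. Rates 20 to 320 g/ha. Visual rating after about 3 weeks versus untreated controls (100% = plants dead, 0% = like control).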

AVEFA = experiment: as above; format: in vivo, Avena fatua; conditions: visual rating about 3 weeks after treatment
Method in brief: as §4

MATIN = experiment: as above; format: in vivo, Tripleurospermum inodorum
Method in brief: as §4

DIGSA = experiment: as above; format: in vivo, Digitaria sanguinalis; conditions: 320 g/ha, visual rating about 3 weeks after treatment
Method in brief: as §4

ABUTH = experiment: as above; format: in vivo, Abutilon theophrasti; conditions: visual rating about 3 weeks after treatment
Method in brief: as §4

VIOTR = experiment: as above; format: in vivo, Viola tricolor
Method in brief: as §4

POLCO = experiment: as above; format: in vivo, Fallopia convolvulus
Method in brief: as §4

ZEAMX = experiment: Post-emergence herbicidal effect and crop plant compatibility, greenhouse pot test; format: in vivo, Zea mays; conditions: one-leaf stage, rated visually after about 3 weeks vs untreated controls
Excerpt: as §1, §2, §3

ECHCG = experiment: Post-emergence herbicidal effect, greenhouse pot test; format: in vivo, Echinochloa crus-galli
Method in brief: as §4

PHBPU = experiment: as above; format: in vivo, Ipomoea purpurea
Method in brief: as §4

SETVI = experiment: as above; format: in vivo, Setaria viridis
Method in brief: as §4

KCHSC = experiment: as above; format: in vivo; conditions: for pest or weed control at 80 g/ha / pest or weed control at 320 g/ha: 504 h, read-out: Post-emergence effect against KCHSC in %
Procedure: as §2, with “plants. Tables 20a to 38c below show the effects/crop compatibilities of selected compounds of the general formula (I) on various harmful plants at an application rate corresponding to 20 to 320 g/ha, which were obtained by the trial procedure specified above.” for “plants.”

VERPE = experiment: as above; format: in vivo, Veronica persica
Method in brief: as §4

[1] = 320 g/ha, visual rating about 3 weeks after treatment
[2] = Avena fatua, 504 h, read-out: Post-emergence effect against AVEFA

COC(=O)CCOC(=O)C(OC)Oc1nn(-c2ncccc2F)c(-c2cncc(F)c2)c1C1CC1 (single isomer, unassigned) [Example I-77]
0%: Post-emergence effect at 20 g/ha against ZEAMX in % (ZEAMX; 20 g/ha) | Post-emergence effect at 80 g/ha against ZEAMX in % (ZEAMX; 80 g/ha)
80%: Post-emergence effect against MATIN in % (MATIN; 80 g/ha) | Post-emergence effect against MATIN in % (MATIN; 320 g/ha) | Post-emergence effect against ABUTH (ABUTH; 80 g/ha) | Post-emergence effect against ABUTH (ABUTH; 320 g/ha) | Post-emergence effect against KCHSC in % (KCHSC; 20 g/ha)
90%: Post-emergence effect against LOLRI in % (LOLRI; 80 g/ha) | Post-emergence effect against LOLRI in % (LOLRI; 320 g/ha) | Post-emergence effect against ALOMY (ALOMY; [1]) | Post-emergence effect against AVEFA (AVEFA; 80 g/ha) | Post-emergence effect against AVEFA (AVEFA; 320 g/ha) | Post-emergence effect against DIGSA (DIGSA) | Post-emergence effect against VIOTR in % (VIOTR; 80 g/ha) | Post-emergence effect against VIOTR in % (VIOTR; 320 g/ha) | Post-emergence effect against POLCO in % (POLCO; 80 g/ha) | Post-emergence effect against POLCO in % (POLCO; 320 g/ha) | Post-emergence effect against ECHCG in % (ECHCG; 80 g/ha) | Post-emergence effect against ECHCG in % (ECHCG; 320 g/ha) | Post-emergence effect against PHBPU in % (PHBPU; 80 g/ha) | Post-emergence effect against PHBPU in % (PHBPU; 320 g/ha) | Post-emergence effect against SETVI in % (SETVI; 320 g/ha) | Post-emergence effect against KCHSC in % (KCHSC; 80 g/ha) | Post-emergence effect against KCHSC in % (KCHSC; 320 g/ha) | Post-emergence effect against VERPE in % (VERPE; 320 g/ha)

CCOC(=O)C(OC)Oc1nn(-c2ncccc2F)c(-c2ccc(F)nc2)c1C1CC1 (stereo not shown) [Example I-58]
10%: plant injury at 80 g/ha (ZEAMX; Zea mays, 504 h, 80 g/ha, read-out: Post-emergence effect at 80 g/ha against ZEAMX in %)
90%: pest or weed control at 80 g/ha (LOLRI; Lolium rigidum, 504 h, 80 g/ha, read-out: Post-emergence effect against LOLRI in %) | pest or weed control at 320 g/ha (LOLRI; Lolium rigidum, 504 h, 320 g/ha, read-out: Post-emergence effect against LOLRI in %) | pest or weed control at 320 g/ha (ALOMY; Alopecurus myosuroides, 504 h, 320 g/ha, visual rating about 3 weeks after treatment, read-out: Post-emergence effect against ALOMY) | pest or weed control at 320 g/ha (AVEFA; Avena fatua, 504 h, 320 g/ha, read-out: Post-emergence effect against AVEFA) | pest or weed control at 80 g/ha (ECHCG; Echinochloa crus-galli, 504 h, 80 g/ha, read-out: Post-emergence effect against ECHCG in %) | pest or weed control at 320 g/ha (ECHCG; Echinochloa crus-galli, 504 h, 320 g/ha, read-out: Post-emergence effect against ECHCG in %) | pest or weed control at 320 g/ha (PHBPU; Ipomoea purpurea, 504 h, 320 g/ha, read-out: Post-emergence effect against PHBPU in %) | pest or weed control at 320 g/ha (SETVI; Setaria viridis, 504 h, 320 g/ha, read-out: Post-emergence effect against SETVI in %) | pest or weed control at 80 g/ha (KCHSC; 80 g/ha) | pest or weed control at 320 g/ha (KCHSC; 320 g/ha)
0%: plant injury at 20 g/ha (ZEAMX; Zea mays, 504 h, 20 g/ha, read-out: Post-emergence effect at 20 g/ha against ZEAMX in %)
80%: pest or weed control at 20 g/ha (AVEFA; [2]) | pest or weed control at 80 g/ha (AVEFA; Avena fatua, 504 h, 80 g/ha, read-out: Post-emergence effect against AVEFA) | pest or weed control at 320 g/ha (DIGSA; Digitaria sanguinalis, 504 h, read-out: Post-emergence effect against DIGSA) | pest or weed control at 80 g/ha (ABUTH; Abutilon theophrasti, 504 h, 80 g/ha, read-out: Post-emergence effect against ABUTH) | pest or weed control at 320 g/ha (ABUTH; Abutilon theophrasti, 504 h, 320 g/ha, read-out: Post-emergence effect against ABUTH) | pest or weed control at 80 g/ha (VIOTR; Viola tricolor, 504 h, 80 g/ha, read-out: Post-emergence effect against VIOTR in %) | pest or weed control at 320 g/ha (VIOTR; Viola tricolor, 504 h, 320 g/ha, read-out: Post-emergence effect against VIOTR in %) | pest or weed control at 80 g/ha (POLCO; Fallopia convolvulus, 504 h, 80 g/ha, read-out: Post-emergence effect against POLCO in %) | pest or weed control at 320 g/ha (POLCO; Fallopia convolvulus, 504 h, 320 g/ha, read-out: Post-emergence effect against POLCO in %) | pest or weed control at 80 g/ha (PHBPU; Ipomoea purpurea, 504 h, 80 g/ha, read-out: Post-emergence effect against PHBPU in %) | pest or weed control at 320 g/ha (VERPE; Veronica persica, 504 h, 320 g/ha, read-out: Post-emergence effect against VERPE in %)

COC(=O)C(OC)Oc1nn(-c2ncccc2F)c(-c2ccc(F)nc2)c1C1CC1 (stereo not shown) [Example I-108]
90%: Post-emergence effect against LOLRI in % (LOLRI; 320 g/ha) | pest or weed control at 80 g/ha (ALOMY; Alopecurus myosuroides, 504 h, 80 g/ha, visual rating about 3 weeks after treatment, read-out: Post-emergence effect against ALOMY) | Post-emergence effect against AVEFA (AVEFA; 80 g/ha) | Post-emergence effect against AVEFA (AVEFA; 320 g/ha) | Post-emergence effect against DIGSA (DIGSA) | Post-emergence effect against ABUTH (ABUTH; 320 g/ha) | Post-emergence effect against VIOTR in % (VIOTR; 80 g/ha) | Post-emergence effect against VIOTR in % (VIOTR; 320 g/ha) | Post-emergence effect against ECHCG in % (ECHCG; 80 g/ha) | Post-emergence effect against ECHCG in % (ECHCG; 320 g/ha) | Post-emergence effect against PHBPU in % (PHBPU; 320 g/ha) | Post-emergence effect against SETVI in % (SETVI; 320 g/ha) | Post-emergence effect against KCHSC in % (KCHSC; 320 g/ha) | pest or weed control at 80 g/ha (KCHSC; 80 g/ha)
100%: Post-emergence effect against ALOMY (ALOMY; [1])
0%: Post-emergence effect at 20 g/ha against ZEAMX in % (ZEAMX; 20 g/ha) | Post-emergence effect at 80 g/ha against ZEAMX in % (ZEAMX; 80 g/ha) | plant injury at 320 g/ha (ZEAMX; Zea mays, 504 h, 320 g/ha, read-out: Post-emergence effect at 320 g/ha against ZEAMX in %)
80%: Post-emergence effect against ABUTH (ABUTH; 80 g/ha) | Post-emergence effect against POLCO in % (POLCO; 320 g/ha) | Post-emergence effect against PHBPU in % (PHBPU; 80 g/ha) | Post-emergence effect against VERPE in % (VERPE; 320 g/ha) | pest or weed control at 80 g/ha (VERPE; Veronica persica, 504 h, 80 g/ha, read-out: Post-emergence effect against VERPE in %)

COC(=O)C(OC)Oc1nn(-c2cc(F)ccc2F)c(-c2cncc(F)c2)c1C1CC1 (stereo not shown) [Example I-112]
90%: Post-emergence effect against LOLRI in % (LOLRI; 80 g/ha) | Post-emergence effect against LOLRI in % (LOLRI; 320 g/ha) | Post-emergence effect against ALOMY (ALOMY; 80 g/ha, visual rating about 3 weeks after treatment) | Post-emergence effect against ALOMY (ALOMY; [1]) | Post-emergence effect against AVEFA (AVEFA; 80 g/ha) | Post-emergence effect against AVEFA (AVEFA; 320 g/ha) | pest or weed control at 20 g/ha (AVEFA; [2]) | Post-emergence effect against ECHCG (ECHCG; 20 g/ha, visual rating about 3 weeks after treatment) | Post-emergence effect against ECHCG in % (ECHCG; 80 g/ha) | Post-emergence effect against ECHCG in % (ECHCG; 320 g/ha) | Post-emergence effect against PHBPU in % (PHBPU; 20 g/ha) | Post-emergence effect against PHBPU in % (PHBPU; 80 g/ha) | Post-emergence effect against PHBPU in % (PHBPU; 320 g/ha)
80%: Post-emergence effect at 20 g/ha against ALOMY in % (ALOMY; 20 g/ha, one-leaf stage, rated visually after about 3 weeks vs untreated controls) | Post-emergence effect against MATIN in % (MATIN; 20 g/ha) | Post-emergence effect against MATIN in % (MATIN; 80 g/ha) | Post-emergence effect against MATIN in % (MATIN; 320 g/ha) | Post-emergence effect against DIGSA (DIGSA) | Post-emergence effect against ABUTH (ABUTH; 80 g/ha) | Post-emergence effect against ABUTH (ABUTH; 320 g/ha) | pest or weed control at 20 g/ha (ABUTH; Abutilon theophrasti, 504 h, 20 g/ha, read-out: Post-emergence effect against ABUTH) | Post-emergence effect against VIOTR in % (VIOTR; 80 g/ha) | Post-emergence effect against VIOTR in % (VIOTR; 320 g/ha) | pest or weed control at 20 g/ha (VIOTR; Viola tricolor, 504 h, 20 g/ha, read-out: Post-emergence effect against VIOTR in %) | Post-emergence effect against POLCO in % (POLCO; 80 g/ha) | Post-emergence effect against POLCO in % (POLCO; 320 g/ha) | Post-emergence effect against SETVI in % (SETVI; 80 g/ha) | Post-emergence effect against SETVI in % (SETVI; 320 g/ha) | pest or weed control at 320 g/ha (KCHSC; 320 g/ha) | Post-emergence effect against VERPE in % (VERPE; 20 g/ha) | Post-emergence effect against VERPE in % (VERPE; 80 g/ha) | Post-emergence effect against VERPE in % (VERPE; 320 g/ha)
